Laboratory results as given in patent publication US20250230154A1, “COMPOUND HAVING SHP2 PROTEIN DEGRADING ACTIVITY, AND MEDICAL USES THEREOF” (UBIX THERAPEUTICS, INC., priority 2021, published 2025).

Target: T1, SHP2 protein (Homo sapiens, UniProt Q06124)
T1 sequence (Q06124 1-593): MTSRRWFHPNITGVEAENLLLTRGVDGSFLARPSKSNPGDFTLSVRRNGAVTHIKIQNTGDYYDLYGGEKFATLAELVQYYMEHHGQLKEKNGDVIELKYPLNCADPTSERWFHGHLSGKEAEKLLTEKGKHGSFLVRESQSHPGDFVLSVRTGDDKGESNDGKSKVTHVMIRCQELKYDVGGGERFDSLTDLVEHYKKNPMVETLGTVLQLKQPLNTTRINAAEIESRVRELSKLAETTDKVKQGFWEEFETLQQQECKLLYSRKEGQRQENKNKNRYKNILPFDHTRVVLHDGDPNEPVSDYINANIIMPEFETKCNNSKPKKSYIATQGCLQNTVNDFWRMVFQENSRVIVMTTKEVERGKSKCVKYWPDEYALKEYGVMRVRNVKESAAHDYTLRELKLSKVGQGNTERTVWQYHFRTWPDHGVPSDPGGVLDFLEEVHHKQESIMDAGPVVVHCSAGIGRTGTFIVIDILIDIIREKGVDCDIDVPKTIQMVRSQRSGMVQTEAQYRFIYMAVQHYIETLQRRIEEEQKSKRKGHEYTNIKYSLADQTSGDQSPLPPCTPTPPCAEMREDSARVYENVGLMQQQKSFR
Assay: Measurement of SHP2 protein degradation in MV-4-11 cells (western blotting)
Format: cell-based
Set-up: endogenous in cells; host or cells: MV-4-11
Details: MV-4-11 cells, 24 hours
Procedure: Experimental Example 2: Measurement of SHP2 Protein Degradation in MV-4-11 Cells
MV-4-11 cells were treated with the synthesized Example compound, and the amount of SHP2 protein present in the cells was measured using western blotting detection. The protocol of the experiment conducted using MV-4-11 cells was as follows:
[Culture] MV-4-11 cells resuspended in IMDM MEDIUM (Hyclone, SH30228.01) containing 5% FBS (Hyclone, SV30207.02) and 1% Penicillin-streptomycin (Welgene, LS 202-02) were seeded at a density of 1×10^6/mL/well in a 12-well plate in an amount of 1 ml each.
[Compound treatment] The 12-well plate was treated as follows: Cells were treated with compounds at a final concentration of […] made by serial dilution of 10 mM stock with DMSO in 1/100 increments […]. After 24 hours, cells were harvested. For the negative control group, DMSO diluted 1/100 to the media (3 mL DMSO+297 mL media) was added.
[Harvest] Each well was collected in a 1.5 mL microtube by pipetting with a 1 mL pipette and centrifuged (500 g, 5 min, 4° C.). The supernatant was removed. It was washed with PBS, and then centrifuged again (500 g, 5 min, 4° C.). Thereafter, the supernatant was removed to prepare a pellet.
[Cell Lysis and Sample preparation] Lysis buffer was prepared as follows: […] of RIPA buffer (Biosesang, RC2038-050-00)+0.5 mM PMSF (SIGMA, P7626)+1× Protease/Phosphatase Inhibitor (Cell signaling, 5872S) per well was added and placed on ice for 30 minutes (vortexing at 0 and 30 minutes, respectively). After sonication process (10 seconds pulse, 30 seconds rest, 5 cycles, 70% amplification), centrifugation (15000 g, 15 min, 4° C.) was performed, and then only the supernatant was taken and transferred to a microtube. The sample was diluted ¼ with RIPA buffer in a 96-well plate, and mixed with A:B=50:1 of the BCA Protein Assay Kit (iNtRON, 21071). […] each of the mixture was left at 37° C. for 30 minutes, and cooled for 10 minutes. Then, absorbance was measured at 562 nm with the SYNERGY H1 microplate reader from BioTek. After making a sample by quantifying the protein with the measured value, boiling was performed at 70° C. for 10 minutes. At this time, the sample buffer used was a mixture of NuPAGE or Bolt 4× sample buffer (Invitrogen) and each 10× sample reducing agent according to the gel to be used, and RIPA buffer was used for protein dilution.
[Western blotting detection method] The same amount of sample was loaded on NuPAGE or Bolt Bis-tris 4-12% gradient gel and run (200 V, 35 minutes). It was transferred to 0.2 mm NC membrane with Trans-blot Turbo (BIO-RAD) (1.3 A constant, 25 V limit, 15 minutes). Blocking was performed at room temperature for 1 hour with Skim milk or Intercept Blocking Buffer (LI-COR, 927-60001):0.1% TBST=1:1. Anti-SHPTP2 Mouse (1:500 in 2% BSA/0.2% TBST, size: 70 kDa, Santacruz sc-7384) was incubated overnight at 4° C., and Anti-GAPDH Rabbit (1:2,000 in 2% BSA/0.2% TBST, size: 37 kDa, CST #2118) was incubated at room temperature for 1 hour 30 minutes or 3 hours. It was washed 3 times for 5 minutes each with 0.2% TBST washing buffer. Secondary antibody Anti-Rabbit IgG (1:5,000 in 2% BSA/0.2% TBST, CST), IRDye® 680RD Goat anti-Rabbit IgG Secondary Antibody (1:10,000 in 2% BSA/0.2% TBST, LI-COR 926-68071) were added and incubated for 45 minutes on a rocker at room temperature. It was washed 5 times for 5 minutes each with 0.2% TBST washing buffer and detected with LI-COR's Odyssey. At this time, SHPTP2 was detected using SuperSignal West Pico PLUS Chemiluminescent Substrate, and house-keeping genes were also detected.
In the results of Table 4 below, Compounds 1-7, 13-19, and 21-26 are results in KYSE-520 cells, and the others are results in MV-4-11 cells.

Row | SMILES | SHP2 degradation (%) 10 nM [%] | SHP2 degradation (%) 100 nM [%] | SHP2 degradation (%) 1000 nM [%]
1 | Cc1ncsc1-c1ccc(CNC(=O)[C@@H]2C[C@@H](O)CN2C(=O)[C@@H](NC(=O)C2(F)CC2)C(C)(C)C)c(OCC2CCN(C(=O)CC(=O)Nc3cccc(Sc4ncc(N5CCC(C)(N)CC5)nc4N)c3Cl)CC2)c1 [Example 30, (2S,4R)—N-(2-((1-(3-((3-((3-amino-5-(4-amino-4-methylpiperidin-1-yl)pyrazin-2-yl)thio)-2-chlorophenyl)amino)-3-oxopropanoyl)piperidin-4-yl)methoxy)-4-(4-methylthiazol-5-yl)benzyl)-1-((S)-2-(1-fluorocyclopropane-1-carboxamido)-3,3-dimethylbutanoyl)-4-hydroxypyrrolidine-2-carboxamide] | 71.5 | 95.5 | –
2 | Cc1ncsc1-c1ccc(CNC(=O)[C@@H]2C[C@@H](O)CN2C(=O)[C@@H](NC(=O)C2(F)CC2)C(C)(C)C)c(OCC2CCN(C(=O)CC(=O)Nc3cccc(Sc4ncc(N5CCC(C)(CN)CC5)nc4N)c3Cl)CC2)c1 [Example 32, (2S,4R)—N-(2-((1-(3-((3-((3-amino-5-(4-(aminomethyl)-4-methylpiperidin-1-yl)pyrazin-2-yl)thio)-2-chlorophenyl)amino)-3-oxopropanoyl)piperidin-4-yl)methoxy)-4-(4-methylthiazol-5-yl)benzyl)-1-((S)-2-(1-fluorocyclopropane-1-carboxamido)-3,3-dimethylbutanoyl)-4-hydroxypyrrolidine-2-carboxamide] | 75 | 95 | –
3 | CC(=O)N[C@H](C(=O)N1C[C@H](O)C[C@H]1C(=O)NCc1ccc(-c2scnc2C)cc1OCC1CCN(C(=O)CC(=O)Nc2cccc(Sc3cnc(N4CCC(C)(CN)CC4)cn3)c2Cl)CC1)C(C)(C)C [Example 33, (2S,4R)-1-((S)-2-acetamido-3,3-dimethylbutanoyl)-N-(2-((1-(3-((3-((5-(4-(aminomethyl)-4-methylpiperidin-1-yl)pyrazin-2-yl)thio)-2-chlorophenyl)amino)-3-oxopropanoyl)piperidin-4-yl)methoxy)-4-(4-methylthiazol-5-yl)benzyl)-4-hydroxypyrrolidine-2-carboxamide] | 90 | 96.5 | –
4 | Cc1ncsc1-c1ccc(CNC(=O)[C@@H]2C[C@@H](O)CN2C(=O)[C@@H](NC(=O)C2(F)CC2)C(C)(C)C)c(OCCC2CCN(C(=O)CC(=O)Nc3cccc(Sc4cnc(N5CCC(C)(N)CC5)cn4)c3Cl)CC2)c1 [Example 34, (2S,4R)—N-(2-(2-(1-(3-((3-((5-(4-amino-4-methylpiperidin-1-yl)pyrazin-2-yl)thio)-2-chlorophenyl)amino)-3-oxopropanoyl)piperidin-4-yl)ethoxy)-4-(4-methylthiazol-5-yl)benzyl)-1-((S)-2-(1-fluorocyclopropane-1-carboxamido)-3,3-dimethylbutanoyl)-4-hydroxypyrrolidine-2-carboxamide] | 77 | 93.5 | 94
5 | Cc1ncsc1-c1ccc(CNC(=O)[C@@H]2C[C@@H](O)CN2C(=O)[C@@H](NC(=O)C2(F)CC2)C(C)(C)C)c(OCCC2CCN(C(=O)CC(=O)Nc3cccc(Sc4ncc(N5CCC(C)(N)CC5)nc4N)c3Cl)CC2)c1 [Example 35, (2S,4R)—N-(2-(2-(1-(3-((3-((3-amino-5-(4-amino-4-methylpiperidin-1-yl)pyrazin-2-yl)thio)-2-chlorophenyl)amino)-3-oxopropanoyl)piperidin-4-yl)ethoxy)-4-(4-methylthiazol-5-yl)benzyl)-1-((S)-2-(1-fluorocyclopropane-1-carboxamido)-3,3-dimethylbutanoyl)-4-hydroxypyrrolidine-2-carboxamide] | 74 | 93 | 93

Results, then the compound that gave them:

Row | SHP2 degradation (%) 10 nM [%] | SHP2 degradation (%) 100 nM [%] | SHP2 degradation (%) 1000 nM [%] | SMILES
6 | 84 | 95.5 | – | Cc1ncsc1-c1ccc(CNC(=O)[C@@H]2C[C@@H](O)CN2C(=O)[C@@H](NC(=O)C2(F)CC2)C(C)(C)C)c(OCC2CCN(C(=O)CC(=O)Nc3cccc(Sc4cnc(N5CCC(C)(N)CC5)cn4)c3Cl)CC2)c1 [Example 29, (2S,4R)—N-(2-((1-(3-((3-((5-(4-amino-4-methylpiperidin-1-yl)pyrazin-2-yl)thio)-2-chlorophenyl)amino)-3-oxopropanoyl)piperidin-4-yl)methoxy)-4-(4-methylthiazol-5-yl)benzyl)-1-((S)-2-(1-fluorocyclopropane-1-carboxamido)-3,3-dimethylbutanoyl)-4-hydroxypyrrolidine-2-carboxamide]
7 | 76 | 97 | 97.5 | Cc1ncsc1-c1ccc(CNC(=O)[C@@H]2C[C@@H](O)CN2C(=O)[C@@H](NC(=O)C2(F)CC2)C(C)(C)C)c(OCC2CCN(C(=O)CC(=O)Nc3cccc(Sc4cnc(N5CCC(C)(CN)CC5)cn4)c3Cl)CC2)c1 [Example 31, (2S,4R)—N-(2-((1-(3-((3-((5-(4-(aminomethyl)-4-methylpiperidin-1-yl)pyrazin-2-yl)thio)-2-chlorophenyl)amino)-3-oxopropanoyl)piperidin-4-yl)methoxy)-4-(4-methylthiazol-5-yl)benzyl)-1-((S)-2-(1-fluorocyclopropane-1-carboxamido)-3,3-dimethylbutanoyl)-4-hydroxypyrrolidine-2-carboxamide]
8 | 83.0 | 93.5 | 93.5 | Cc1ncsc1-c1ccc(CNC(=O)[C@@H]2C[C@@H](O)CN2C(=O)[C@@H](NC(=O)C2(F)CC2)C(C)(C)C)c(OCCC2CCN(C(=O)CC(=O)Nc3cccc(Sc4cnc(N5CCC(C)(CN)CC5)cn4)c3Cl)CC2)c1 [Example 36, (2S,4R)—N-(2-(2-(1-(3-((3-((5-(4-(aminomethyl)-4-methylpiperidin-1-yl)pyrazin-2-yl)thio)-2-chlorophenyl)amino)-3-oxopropanoyl)piperidin-4-yl)ethoxy)-4-(4-methylthiazol-5-yl)benzyl)-1-((S)-2-(1-fluorocyclopropane-1-carboxamido)-3,3-dimethylbutanoyl)-4-hydroxypyrrolidine-2-carboxamide]
